According to patent publication USRE46792E1, “Oxazole compound and pharmaceutical composition” (Otsuka Pharmaceutical Co., Ltd., priority 2005, dated 2018):

target: human PDE4D3 (PDE4D) (Homo sapiens (Human), UniProt Q08499); assay: Phosphodiesterase (PDE)4 inhibitory activity evaluation test ([3H]cAMP hydrolysis by PDE4D enzyme solution); type: biochemical; details: recombinant human PDE4D3 expressed in COS-7 cells; [3H]cAMP substrate; 10 min at 30° C.; 2% DMSO
Source text: Phosphodiesterase (PDE)4 Inhibitory Activity Evaluation Test
(1) Large Scale Plasmid Preparation
Plasmid containing genes (HPDE4D) coding for human PDE4D3 cDNA (stored in Otsuka America Pharmaceutical, Inc., Maryland Research Laboratories) was transformed in E. coli, cultured on a large scale, and purified using an EndoFree™ Plasmid Maxi Kit (Qiagen).
(2) Abundant Expression and Purification of PDE4D
COS-7 cells derived from African green monkey kidneys were passage cultured in D-MEM media containing 100 units/ml penicillin, 100 μg/ml streptomycin, and 10% FBS. The cells were transfected with the plasmid prepared in (1) above using Lipofectamine™ 2000 (hereinafter referred to as “LF2000”, Invitrogen), following the manufacturer's protocol. The COS-7 cells were inoculated in a 10 cm culture dish on the previous day so as to be 90% confluent on the day of transfection. Culture dishes each containing a plasmid solution (solution A) in which 24 μg of plasmid was diluted in 1.5 ml Opti-MEM I Reduced Serum Medium (Invitrogen) and an LF2000 solution (solution B) in which 60 μl of LF2000 was diluted in 1.5 ml Opti-MEM I Reduced Serum Medium were separately allowed to stand for 5 minutes at room temperature. Solutions A and B were then mixed and the mixture was allowed to stand for 20 minutes at room temperature. The mixture was added to the cultured cells, and incubated at 37° C. (5% CO2) overnight. On the following day, the medium was replaced, and the mixture was further incubated overnight to harvest the cells in the following manner. The cells were washed with PBS (Sigma) once, and 10 ml of a Trypsin-EDTA solution (Sigma) was added to each culture dish. After the solution was distributed to each of the culture dishes, the cells were detached, and the dishes were allowed to stand for about 5 minutes at 37° C. The detached cells from the dishes were suspended in media, collected into centrifuge tubes, and centrifuged at 1200 rpm for 5 minutes at 4° C., and supernatants were removed. The cells were further washed with PBS, and stored at −80° C. KHEM buffer (100 mM Hepes, 50 mM KCl, 10 mM EGTA, 1.92 mM MgCl2, pH 7.4) containing 1 mM DTT, 1 μg/ml antipain, 1 μg/ml aprotinin, 1 μg/ml leupeptin, 1 μg/ml pepstatin A, 157 μg/ml benzamidine, and 120 μg/ml Pefabloc SC was added to the stored cells, and the contents were moved to a glass homogenizer to be homogenized on ice. The cell suspension was centrifuged at 1000 rpm for 5 minutes at 4° C., and the supernatant was further centrifuged at 14000 rpm for one hour. After centrifugation, the supernatant was dispensed into new tubes as PDE4D enzyme solutions, and stored in a deep freezer.
(3) Determination on Dilution Ratio of PDE4D Enzyme Solutions
The PDE4D enzyme solutions prepared in (2) above were dissolved in 20 mM Tris-HCl solution (pH 7.4) to give 10-, 25-, 50-, 100-, 200-, 400-, and 800-fold dilutions of the enzyme solutions. PDE4D activities were measured according to (4) below. The percentage of catalyzed cAMP to total cAMP was calculated, and such a dilution, in which the percentage was between 10% and 30%, was adopted in the inhibitory study below.
(4) Measurement of PDE4D Inhibitory Activity
Necessary amounts of test compounds were weighed, and 100% dimethylsulfoxide (DMSO) was added thereto to adjust the concentration to 10 mM. The solutions were stored in a freezer as stock solutions of each test compound. After being thawed when required, the solutions were diluted 20-fold with 100% DMSO to give a 500 μM concentration. Further, 10-fold serial dilutions were made with 100% DMSO to prepare test compounds of different concentrations. 2 μl of solutions containing one of each of the test compound were separately added into 1.2 ml tubes in which 23 μl of 20 mM Tris-HCl (pH 7.4) had been placed beforehand. […]

Chain of human PDE4D3 (PDE4D) (Q08499 other isoform, or with tags, fused parts or gaps): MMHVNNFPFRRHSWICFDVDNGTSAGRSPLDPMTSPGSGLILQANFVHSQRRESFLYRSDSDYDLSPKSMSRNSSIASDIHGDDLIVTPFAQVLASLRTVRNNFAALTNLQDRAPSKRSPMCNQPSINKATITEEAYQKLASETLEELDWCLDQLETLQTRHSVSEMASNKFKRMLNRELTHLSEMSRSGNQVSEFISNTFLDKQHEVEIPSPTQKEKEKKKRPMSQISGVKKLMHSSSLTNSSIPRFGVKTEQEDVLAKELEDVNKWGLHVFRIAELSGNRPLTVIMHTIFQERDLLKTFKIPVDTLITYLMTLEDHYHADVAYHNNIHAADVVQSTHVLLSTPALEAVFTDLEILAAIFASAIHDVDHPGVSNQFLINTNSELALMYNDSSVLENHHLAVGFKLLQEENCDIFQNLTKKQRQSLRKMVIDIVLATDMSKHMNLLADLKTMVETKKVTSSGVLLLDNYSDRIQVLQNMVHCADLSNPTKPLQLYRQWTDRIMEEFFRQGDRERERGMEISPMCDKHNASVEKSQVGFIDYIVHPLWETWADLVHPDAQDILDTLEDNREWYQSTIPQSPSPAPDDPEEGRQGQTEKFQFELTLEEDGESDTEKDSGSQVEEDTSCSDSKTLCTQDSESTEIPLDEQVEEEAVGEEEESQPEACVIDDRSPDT

Molecule	IC50 [nM]
C=CCOc1cc(-c2nc(CCC(=O)c3ccccc3OCC)co2)ccc1OC [Example 104, 3-[2-(3-allyloxy-4-methoxyphenyl)oxazol-4-yl]-1-(2-ethoxyphenyl)propan-1-one]	< 50
3-[2-(3-hydroxy-4-methoxyphenyl)oxazol-4-yl]-1-(2-methoxymethoxy phenyl)propan-1-one [Example 232]	< 50
CCCOc1cc(-c2nc(CCC(=O)c3ncccc3C)co2)ccc1OC [Example 143, 3-[2-(4-methoxy-3-propoxyphenyl)oxazol-4-yl]-1-(3-methylpyridin-2-yl)propan-1-one]	< 50
CCOc1cc(-c2nc(CCC(=O)c3ncccc3C)co2)ccc1OC(F)F [Example 333, 3-[2-(4-difluoromethoxy-3-ethoxyphenyl)oxazol-4-yl]-1-(3-methylpyridin-2-yl)propan-1-one]	< 50
Cc1cccnc1C(=O)CCc1coc(-c2ccc(OC(F)F)c(OCC3CC3)c2)n1 [Example 328, 3-[2-(3-cyclopropylmethoxy-4-difluoromethoxyphenyl)oxazol-4-yl]-1-(3-methylpyridin-2-yl)propan-1-one]	< 50
COc1ccc(-c2nc(CCC(=O)c3ccccc3OCC(F)F)co2)cc1OCC(C)C [Example 285, 1-[2-(2,2-difluoroethoxy)phenyl]-3-[2-(3-isobutoxy-4-methoxyphenyl)oxazol-4-yl]-propan-1-one]	< 50
COc1ccc(-c2nc(CCC(=O)c3ncccc3C)co2)cc1OCC(F)F [Example 309, 3-{2-[3-(2,2-difluoroethoxy)-4-methoxyphenyl]oxazol-4-yl}-1-(3-methylpyridin-2-yl)propan-1-one]	< 50
CCC(CC)Oc1cc(-c2nc(CNC(=O)c3ncccc3C)co2)ccc1OC [Example 324, N-{2-[3-(1-ethylpropoxy)-4-methoxyphenyl]oxazol-4-ylmethyl}-3-methylpicolinamide]	< 50
C=CCCOc1cc(-c2nc(CCC(=O)c3ccccc3OCC)co2)ccc1OC [Example 108, 3-[2-(3-(3-butenyloxy)-4-methoxyphenyl)oxazol-4-yl]-1-(2-ethoxyphenyl)propan-1-one]	< 50
CCOc1ccccc1C(=O)NCc1coc(-c2ccc(OC(F)F)c(OCC3CC3)c2)n1 [Example 353, N-[2-(3-cyclopropylmethoxy-4-difluoromethoxyphenyl)oxazol-4-ylmethyl]-2-ethoxy benzamide]	< 50
CCOc1cc(-c2nc(CCC(=O)c3ccccc3OCC)co2)ccc1OC [Example 103, 3-[2-(3-ethoxy-4-methoxyphenyl)oxazol-4-yl]-1-(2-ethoxyphenyl)propan-1-one]	< 50
C=CCCOc1cc(-c2nc(CCC(=O)c3ccccc3OCCF)co2)ccc1OC [Example 276, 3-[2-(3-but-3-enyloxy-4-methoxyphenyl)oxazol-4-yl]-1-[2-(2-fluoroethoxy)phenyl]propan-1-one]	< 50
COc1ccc(-c2nc(CNC(=O)c3ccccc3OCC(F)(F)F)co2)cc1OCC1CC1 [Example 32, N-[2-(3-cyclopropylmethoxy-4-methoxyphenyl)oxazol-4-ylmethyl]-2-(2,2,2-trifluoroethoxy)benzamide]	< 50
COc1ccc(-c2nc(CCC(=O)c3ncccc3C)co2)cc1OCC1CC1 [Example 137, 3-[2-(3-cyclopropylmethoxy-4-methoxyphenyl)oxazol-4-yl]-1-(3-methylpyridin-2-yl)propan-1-one]	< 50
C=CCOc1cc(-c2nc(CCC(=O)c3ccccc3OCC)co2)ccc1OC(F)F [Example 335, 3-[2-(3-allyloxy-4-difluoromethoxyphenyl)oxazol-4-yl]-1-(2-ethoxyphenyl)propan-1-one]	< 50
C=CCCOc1cc(-c2nc(CNC(=O)c3ncccc3C)co2)ccc1OC(F)F [Example 343, N-[2-(3-but-3-enyloxy-4-difluoromethoxyphenyl)oxazol-4-ylmethyl]-3-methylpicolinamide]	< 50
CCOc1ccc(-c2nc(CCC(=O)c3ccccc3OCCF)co2)cc1OCC [Example 289, 3-[2-(3,4-diethoxyphenyl)oxazol-4-yl]-1-[2-(2-fluoroethoxy)phenyl]propan-1-one]	< 50
C=CCCOc1cc(-c2nc(CCC(=O)c3ncccc3C)co2)ccc1OC(F)F [Example 331, 3-[2-(3-but-3-enyloxy-4-difluoromethoxyphenyl)-oxazol-4-yl]-1-(3-methylpyridin-2-yl)propan-1-one]	< 50
CCOc1ccccc1C(=O)NCc1coc(-c2ccc(OC(F)F)c(OCC(F)(F)F)c2)n1 [Example 383, N-{2-[4-difluoromethoxy-3-(2,2,2-trifluoroethoxy)phenyl]-oxazol-4-ylmethyl}-2-ethoxy benzamide]	< 50
CCOc1cc(-c2nc(CCC(=O)c3ccccc3OC)co2)ccc1OC [Example 172, 3-[2-(3-ethoxy-4-methoxyphenyl)oxazol-4-yl]-1-(2-methoxyphenyl)propan-1-one]	< 50
C=CCOc1cc(-c2nc(CCC(=O)c3ccccc3OCC(F)F)co2)ccc1OC [Example 281, 3-[2-(3-allyloxy-4-methoxyphenyl)oxazol-4-yl]-1-[2-(2,2-difluoroethoxy)phenyl]propan-1-one]	< 50
COc1ccc(-c2nc(CCC(=O)c3ccccc3OC)co2)cc1OCC1CC1 [Example 170, 3-[2-(3-cyclopropylmethoxy-4-methoxyphenyl)oxazol-4-yl]-1-(2-methoxyphenyl)propan-1-one]	< 50
C=CCCOc1cc(-c2nc(CNC(=O)c3ccccc3OCC)co2)ccc1OC(F)F [Example 354, N-[2-(3-but-3-enyloxy-4-difluoromethoxyphenyl)oxazol-4-ylmethyl]-2-ethoxybenzamide]	< 50
C=CCOc1ccccc1C(=O)CCc1coc(-c2ccc(OC)c(OC(C)C)c2)n1 [Example 224, 1-(2-allyloxyphenyl)-3-[2-(3-isopropoxy-4-methoxyphenyl)oxazol-4-yl]propan-1-one]	< 50
CCOc1cc(-c2nc(CCC(=O)c3ncccc3C)co2)ccc1OC [Example 138, 3-[2-(3-ethoxy-4-methoxyphenyl)oxazol-4-yl]-1-(3-methylpyridin-2-yl)propan-1-one]	< 50
COc1ccc(-c2nc(CCC(=O)c3ncccc3C)co2)cc1OCC1CCC1 [Example 141, 3-[2-(3-cyclobutylmethoxy-4-methoxyphenyl)oxazol-4-yl]-1-(3-methylpyridin-2-yl)propan-1-one]	< 50
COc1ccc(-c2nc(CNC(=O)c3ncccc3C)co2)cc1OCC(C)C [Example 62, N-[2-(3-isobutoxy-4-methoxyphenyl)oxazol-4-ylmethyl]-3-methylpicolinamide]	< 50
CCOc1ccccc1C(=O)NCc1coc(-c2ccc(OC(F)F)c(OC(CC)CC)c2)n1 [Example 355, N-{2-[4-difluoromethoxy-3-(1-ethylpropoxy)phenyl]oxazol-4-ylmethyl}-2-ethoxybenzamide]	< 50
CCCOc1cc(-c2nc(CNC(=O)c3ncccc3C)co2)ccc1OC(F)F [Example 340, N-[2-(4-difluoromethoxy-3-propoxyphenyl)oxazol-4-ylmethyl]-3-methylpicolinamide]	< 50
CCOc1cccnc1C(=O)CCc1coc(-c2ccc(OC)c(OCC3CC3)c2)n1 [Example 133, 3-[2-(3-cyclopropylmethoxy-4-methoxyphenyl)oxazol-4-yl]-1-(3-ethoxypyridin-2-yl)propan-1-one]	< 50
